Measurements reported in the supplement of paper PMC10307832.

Columns and labels:
Assay in all cases: relative viability (nuclei count vs DMSO), 5 days (fraction); higher = more cells survive
Dabrafenib + Pemetrexed = compound: CC(C)(C)c1nc(-c2cccc(NS(=O)(=O)c3c(F)cccc3F)c2F)c(-c2ccnc(N)n2)s1 [Dabrafenib] + Nc1nc2[nH]cc(CCc3ccc(C(=O)N[C@@H](CCC(=O)O)C(=O)O)cc3)c2c(=O)[nH]1 [Pemetrexed] (partner 0.2 µM)
Outline: (§1)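 Five library-drug doses in √10 steps were combined with a fixed anchor-drug dose, or a single drug was given alone, by pin tool to lung cancer cell lines in 1536-well plates the day after seeding. Nuclei were stained and counted after 5 days. Relative viability is the nuclei count in treated wells over that in vehicle wells, taken as the median of duplicate plates.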

VX-702 + OSI-027 = compound: NC(=O)c1ccc(N(C(N)=O)c2c(F)cccc2F)nc1-c1ccc(F)cc1F [VX-702] + COc1cccc2cc(-c3nc([C@H]4CC[C@H](C(=O)O)CC4)n4ncnc(N)c34)[nH]c12 [OSI-027] (partner 0.5 µM)
Outline: as §1

VX-702 + Decitabine = compound: NC(=O)c1ccc(N(C(N)=O)c2c(F)cccc2F)nc1-c1ccc(F)cc1F [VX-702] + Nc1ncn([C@H]2C[C@H](O)[C@@H](CO)O2)c(=O)n1 [Decitabine] (partner 2 µM)
Outline: as §1

VX-702 + Olaparib = compound: NC(=O)c1ccc(N(C(N)=O)c2c(F)cccc2F)nc1-c1ccc(F)cc1F [VX-702] + O=C(c1cc(Cc2n[nH]c(=O)c3ccccc23)ccc1F)N1CCN(C(=O)C2CC2)CC1 [Olaparib] (partner 8 µM)
Outline: as §1

Cell Line	relative viability (Dabrafenib + Pemetrexed; first compound 0.003 µM)	relative viability (Dabrafenib + Pemetrexed; first compound 0.009487 µM)	relative viability (Dabrafenib + Pemetrexed; first compound 0.03 µM)	relative viability (Dabrafenib + Pemetrexed; first compound 0.09487 µM)	relative viability (Dabrafenib + Pemetrexed; first compound 0.3 µM)	relative viability (VX-702 + OSI-027; first compound 0.02 µM)	relative viability (VX-702 + OSI-027; first compound 0.2 µM)	relative viability (VX-702 + OSI-027; first compound 0.6325 µM)	relative viability (VX-702 + OSI-027; first compound 2 µM)	relative viability (VX-702 + Decitabine; first compound 0.02 µM)	relative viability (VX-702 + Decitabine; first compound 0.2 µM)	relative viability (VX-702 + Decitabine; first compound 0.6325 µM)	relative viability (VX-702 + Decitabine; first compound 2 µM)	relative viability (VX-702 + Olaparib; first compound 0.02 µM)	relative viability (VX-702 + Olaparib; first compound 0.2 µM)	relative viability (VX-702 + Olaparib; first compound 0.6325 µM)	relative viability (VX-702 + Olaparib; first compound 2 µM)
201T	0.332	0.352	0.332	0.307	0.287	0.732	0.499	0.69	0.735	0.86	0.838	0.871	0.886	0.832	0.882	0.894	0.898
A549										0.303	0.249	0.332	0.177	0.444	0.243	0.374	0.114
A-427	0.891	1.04	0.828	0.803	0.987	0.4	0.447	0.427	0.352	0.623	0.503	0.54	0.542	0.779	0.751	0.725	0.943
ABC-1						0.47	0.578	0.509	0.615	0.923	1.09	1.09	1.31	0.443	0.894	1.03	0.746
BEN		0.764		0.846	0.908	0.31	0.298	0.315	0.328	0.724	0.646	0.694	0.776	0.781	0.89	0.991	1.06
CAL-12T	1.21	1.44	1.18	1.08	1.14	0.624	0.715	0.661	0.506					0.798	0.69	0.711	0.697
COR-L23	0.18	0.213	0.193	0.209	0.196	0.989	0.75	0.766	0.961	0.518	0.521	0.435	0.525	0.351	0.339	0.379	0.386
COR-L 105	1	1.2	0.799	1.19	1.29	0.661	0.679	0.688	0.517	0.619	0.722	0.696	0.636	0.633	0.658	0.768	0.859
Calu-6															0.597	0.65	0.64
ChaGo-K-1	0.219	0.256	0.263	0.246	0.26	0.641	0.624	0.567	0.566	0.532	0.493	0.516	0.525	0.458	0.414	0.433	0.352
EBC-1														0.82	0.702	0.653	0.745
EKVX		0.484	0.419	0.408	0.395	0.811	0.607	0.675	0.668	0.425	0.29	0.303	0.276	0.726	0.869	0.906	0.974
EMC-BAC-2		0.401	0.392	0.32	0.377	0.372	0.404	0.355	0.313	0.969	0.962	0.944	0.885	0.526	0.483	0.482	0.441
EPLC-272H	0.273	0.271	0.304	0.262	0.488	0.298	0.304	0.279	0.248	0.353	0.373	0.374	0.403	0.856	1.07	0.799	1.07
H3255	0.564	0.593	0.607	0.511	0.643	0.666	0.684	0.541	0.63	0.541		0.671	0.625	0.578	0.53	0.558	0.594
HARA		0.221	0.252	0.238	0.247	0.458	0.412	0.446	0.479	0.567		0.512	0.523	0.87		0.779	0.964
HCC-15	0.221	0.225	0.227	0.212	0.215	0.659	0.661	0.69	0.702	0.656	0.586	0.627	0.647	0.752	0.712	0.692	0.719
HCC-44	0.61	0.58	0.697	0.598	0.651	0.48	0.433	0.491	0.485	1	0.969	1.02	0.924	1.01	0.982	0.989	0.963
HCC-78		0.935	0.91	0.879	0.795	0.364	0.358	0.311	0.32	0.744	0.669	0.715	0.665	0.743	0.671	0.83	0.867
HCC-366	0.216	0.0959	0.172	0.124	0.193	1.09	0.899	0.932	0.107	0.331	0.305	0.353	0.266	0.409	0.361	0.353	0.269
HCC-827	0.224	0.288	0.243		0.281	0.828	0.839	0.688	0.273	0.295	0.31	0.337	0.189	0.648	0.603	0.59	0.562
HOP-62	0.253	0.255	0.286	0.273	0.25	0.88	0.859	0.831	0.982	0.209	0.166	0.206	0.196	0.478	0.611	0.553	0.65
